According to patent publication US10829520B2, “Beta-hairpin peptidomimetics” (POLYPHOR AG, priority 2015, dated 2020):
Where a SMILES comes first, the peptide text is derived from it. Bridges are numbered along the chain shown (N, C = ends). [ ]: non-standard residue; d: D form. Ala(cPent) = N[C@@H](CC1CCCC1)C(=O)O; Tle = CC(C)(C)[C@H](N)C(=O)O; dNle = CCCC[C@@H](N)C(=O)O; dDab = NCC[C@@H](N)C(=O)O; Nle = CCCC[C@H](N)C(=O)O; Orn = NCCC[C@H](N)C(=O)O; Dab = NCC[C@H](N)C(=O)O; Sar = CNCC(=O)O

Assays:
Assay type in all cases: cell-based
[1] = system: Acinetobacter baumannii DSM 30008; conditions: DSM 30008
Method: (§1) Lyophilized peptides were weighed on a Microbalance (Mettler MT5) and dissolved in sterile water to a final concentration of 1 mg/mL. Stock solutions were kept at +4° C., light protected.
(§2) The in vitro antimicrobial activities of the peptides were determined in 96-well plates (Greiner, polystyrene) by the standard CLSI broth microdilution method (Clinical and Laboratory Standards Institute 2014. Performance standards for antimicrobial susceptibility testing, 24th informational supplement. Approved standard CLSI M100-S24; Clinical and Laboratory Standards Institute, Wayne, Pa.). Inocula of the microorganisms were diluted into Mueller-Hinton II (MH-cation adjusted) broth and compared with a 0.5 McFarland standard to give appr. 10^6 colony forming units (CFU)/mL. Aliquots (90 μL) of inoculate were added to 10 μL of MH-II broth+P-80 (Polysorbate 80, 0.002% final concentration, v/v) containing the peptide in serial two-fold dilutions. The following microorganisms were used to determine antibiotic activity of the peptides: Escherichia coli ATCC 25922, Klebsiella pneumoniae SSI #3010^a), Acinetobacter baumannii DSM 30008, Pseudomonas aeruginosa ATCC 27853 and the clinical isolates Escherichia coli 926415^b), Klebsiella pneumoniae 968733^b) and Acinetobacter baumannii 872842^b). Antimicrobial activities of the peptides were expressed as the minimal inhibitory concentration (MIC) in μg/mL at which no visible growth was observed after 18-20 hours of incubation at 35° C. ^a) Obtained from Statens Serum Institut (SSI), Copenhagen, Denmark^b) Obtained from International Health Management Associates, Inc. (IHMA Europe Sàrl), Epalinges, Switzerland

[2] = system: Escherichia coli ATCC 25922; conditions: ATCC 25922
Method: as §1, §2

[3] = system: Klebsiella pneumoniae SSI #3010; conditions: SSI #3010
Method: as §1, §2

[4] = system: Pseudomonas aeruginosa ATCC 27853; conditions: ATCC 27853
Method: as §1, §2

[5] = system: human red blood cells (hRBC); assay: Hemolysis of human red blood cells; conditions: red cells of human, 1 h
Method: as §1
The peptides were tested for their hemolytic activity against human red blood cells (hRBC). Fresh hRBC were washed three times with phosphate buffered saline (PBS) and centrifuged for 10 min at 2000×g. Compounds (100 μg/mL) were incubated with 20% hRBC (v/v) for 1 h at 37° C. and shaking at 300 rpm. The final erythrocyte concentration was approximately 0.9×10^9 cells/mL. A value of 0% and 100% cell lyses, respectively, was determined by incubation of hRBC in the presence of PBS containing 0.001% acetic acid and 2.5% Triton X-100 in H2O, respectively. The samples were centrifuged, the supernatants were 8-fold diluted in PBS buffer and the optical densities (OD) were measured at 540 nm. The 100% lyses value (OD540H2O) gave an OD540 of approximately 0.5-1.0.
Percent hemolysis was calculated as follows: (OD540peptide/OD540H2O)×100%.

| Structure (SMILES) | Acinetobacter baumannii DSM 30008 MIC [1] [µg/mL] | Escherichia coli ATCC 25922 MIC [2] [µg/mL] | Klebsiella pneumoniae SSI #3010 MIC [3] [µg/mL] | Pseudomonas aeruginosa ATCC 27853 MIC [4] [µg/mL] | Hemolysis at 100 μg/mL ([5]; 100 μg/mL) [%] | Hemolysis at 100 μg/mL [5]; 100 [%] |
| --- | --- | --- | --- | --- | --- | --- |
| CC(C)C[C@@H]1NC(=O)[C@@H](CC(C)C)NC(=O)[C@H](CCN)NC(=O)[C@@H](NC(=O)[C@H](CCN)NC(=O)[C@@H](NC(=O)[C@H](CCN)NC(=O)CN(C)C(=O)[C@@H]2CSSC[C@H](NC(=O)[C@@H](N)Cc3c[nH]c4ccccc34)C(=O)N[C@@H](C(C)C)C(=O)N[C@@H](C)C(=O)N[C@@H](CO)C(=O)N3CCC[C@@H]3C(=O)N3CCC[C@H]3C(=O)N[C@@H](CC(C)C)C(=O)N[C@@H](CO)C(=O)N[C@@H](Cc3ccc(O)cc3)C(=O)N2)[C@@H](C)O)CCNC(=O)[C@@H](C(C)C)NC(=O)[C@H](CCN)NC(=O)[C@H](CCN)NC1=O [Ex. 180] (H-WCVAS[dP]PLSYC[Sar][Dab]T[Dab][Dab][Dab][dL]L[Dab][Dab][dV]; disulfide 2-11; lactam 16-C) | 0.25 | 0.125 | 0.125 | 1 | <1 | – |
| CC(C)C[C@@H]1NC(=O)[C@@H](CC(C)C)NC(=O)[C@H](CCN)NC(=O)[C@@H](NC(=O)[C@H](CCN)NC(=O)[C@@H](NC(=O)[C@H](CCN)NC(=O)CN(C)C(=O)[C@@H]2CSSC[C@H](NC(=O)[C@@H](N)Cc3c[nH]c4ccccc34)C(=O)N[C@@H](C(C)C)C(=O)N[C@@H](C)C(=O)N[C@@H](CO)C(=O)N3CCC[C@@H]3C(=O)N3CCC[C@H]3C(=O)N[C@@H](CC(C)C)C(=O)N[C@@H](CO)C(=O)N[C@@H](Cc3ccc(O)cc3)C(=O)N2)[C@@H](C)O)CCNC(=O)[C@H](CCCNC(=N)N)NC(=O)[C@H](CCN)NC(=O)[C@H](CCN)NC1=O [Ex. 181] (H-WCVAS[dP]PLSYC[Sar][Dab]T[Dab][Dab][Dab][dL]L[Dab][Dab]R; disulfide 2-11; lactam 16-C) | 0.125 | 0.0625 | 0.125 | 0.5 | <1 | – |
| CC(C)C[C@@H]1NC(=O)[C@@H](CC(C)C)NC(=O)[C@H](CCN)NC(=O)[C@@H](NC(=O)[C@H](CCN)NC(=O)[C@@H](NC(=O)[C@H](CCN)NC(=O)CN(C)C(=O)[C@@H]2CSSC[C@H](NC(=O)[C@@H](N)Cc3c[nH]c4ccccc34)C(=O)N[C@@H](C(C)C)C(=O)N[C@@H](C)C(=O)N[C@@H](CO)C(=O)N3CCC[C@@H]3C(=O)N3CCC[C@H]3C(=O)N[C@@H](CC(C)C)C(=O)N[C@@H](CO)C(=O)N[C@@H](Cc3ccc(O)cc3)C(=O)N2)[C@@H](C)O)CCNC(=O)[C@@H](CCCNC(=N)N)NC(=O)[C@H](CCN)NC(=O)[C@H](CCN)NC1=O [Ex. 182] (H-WCVAS[dP]PLSYC[Sar][Dab]T[Dab][Dab][Dab][dL]L[Dab][Dab][dR]; disulfide 2-11; lactam 16-C) | 0.75 | 0.5 | 0.5 | 4 | 1 | – |
| CC(C)C[C@@H]1NC(=O)[C@@H](Cc2ccccc2)NC(=O)[C@H](CCN)NC(=O)[C@@H](NC(=O)[C@H](CCN)NC(=O)[C@H](CCCN)NC(=O)[C@@H]2CSSC[C@H](NC(=O)[C@H](Cc3c[nH]c4ccccc34)NC(=O)CN)C(=O)N[C@@H](C(C)(C)C)C(=O)N[C@@H](C)C(=O)N[C@@H](CO)C(=O)N3CCC[C@@H]3C(=O)N3CCC[C@H]3C(=O)N[C@@H](CC3CCCC3)C(=O)N[C@@H](CO)C(=O)N[C@@H](Cc3ccc(O)cc3)C(=O)N2)CCNC(=O)[C@H]([C@@H](C)O)NC(=O)[C@H](CCN)NC(=O)[C@H](CCN)NC1=O [Ex. 183] (H-GWC[Tle]AS[dP]P[Ala(cPent)]SYC[Orn][Dab][Dab][Dab][dF]L[Dab][Dab]T; disulfide 3-12; lactam 15-C) | 0.25 | 0.125 | 0.125 | 0.5 | 2 | – |
| CCCC[C@@H]1NC(=O)[C@@H]2CCCN2C(=O)[C@H]2CCCN2C(=O)[C@H](CO)NC(=O)[C@H](C)NC(=O)[C@H](C(C)(C)C)NC(=O)[C@@H](NC(=O)[C@@H](N)Cc2c[nH]c3ccccc23)CCNC(=O)C[C@@H](C(=O)N[C@@H](CCCN)C(=O)N[C@@H](CCN)C(=O)N[C@H]2CCNC(=O)[C@H]([C@@H](C)O)NC(=O)[C@H](CCN)NC(=O)[C@H](CCN)NC(=O)[C@H](CC(C)C)NC(=O)[C@@H](Cc3ccccc3)NC(=O)[C@H](CCN)NC2=O)NC(=O)[C@H](Cc2ccc(O)cc2)NC(=O)[C@H](CO)NC1=O [Ex. 190] (H-W[Dab][Tle]AS[dP]P[Nle]SYD[Orn][Dab][Dab][Dab][dF]L[Dab][Dab]T; lactam 2-11, 14-C) | 0.5 | 0.5 | 0.5 | 1 | – | <1 |
| CCCC[C@@H]1NC(=O)[C@@H]2CCCN2C(=O)[C@H]2CCCN2C(=O)[C@H](CO)NC(=O)[C@H](C)NC(=O)[C@H](C(C)(C)C)NC(=O)[C@@H](NC(=O)[C@@H](N)Cc2c[nH]c3ccccc23)CSSC[C@@H](C(=O)N[C@@H](CCCN)C(=O)N[C@@H](CCN)C(=O)N[C@H]2CCNC(=O)[C@H]([C@@H](C)O)NC(=O)[C@H](CCN)NC(=O)[C@H](CCN)NC(=O)[C@H](CC(C)C)NC(=O)[C@@H](CCCC)NC(=O)[C@H](CCN)NC2=O)NC(=O)[C@H](Cc2ccc(O)cc2)NC(=O)[C@H](CO)NC1=O [Ex. 192] (H-WC[Tle]AS[dP]P[Nle]SYC[Orn][Dab][Dab][Dab][dNle]L[Dab][Dab]T; disulfide 2-11; lactam 14-C) | 0.25 | 0.25 | 0.25 | 2 | 5 | – |
| CCCC[C@@H]1NC(=O)[C@@H]2CCCN2C(=O)[C@H]2CCCN2C(=O)[C@H](CO)NC(=O)[C@H](C)NC(=O)[C@H](C(C)(C)C)NC(=O)[C@H](CCN)NC(=O)[C@H](Cc2c[nH]c3ccccc23)NC(=O)[C@@H](N)CSSC[C@@H](C(=O)N[C@H](CCN)C(=O)N[C@H]2CCNC(=O)[C@H]([C@@H](C)O)NC(=O)[C@H](CCN)NC(=O)[C@H](CCN)NC(=O)[C@H](CC(C)C)NC(=O)[C@@H](CC(C)C)NC(=O)[C@H](CCN)NC2=O)NC(=O)[C@H](CCCN)NC(=O)[C@H](CCN)NC(=O)[C@H](Cc2ccc(O)cc2)NC(=O)[C@H](CO)NC1=O [Ex. 195] (H-CW[Dab][Tle]AS[dP]P[Nle]SY[Dab][Orn]C[dDab][Dab][Dab][dL]L[Dab][Dab]T; disulfide 1-14; lactam 16-C) | 0.5 | 0.125 | 0.125 | 1 | <1 | – |
| CC(C)C[C@@H]1NC(=O)[C@@H](CC(C)C)NC(=O)[C@H](CCN)NC(=O)[C@@H](NC(=O)[C@@H](CCN)NC(=O)[C@@H]2CSSC[C@H](N)C(=O)N[C@@H](Cc3c[nH]c4ccccc34)C(=O)N[C@@H](CCN)C(=O)N[C@@H](C(C)(C)C)C(=O)N[C@@H](C)C(=O)N[C@@H](CO)C(=O)N3CCC[C@@H]3C(=O)N3CCC[C@H]3C(=O)N[C@@H](CC(C)C)C(=O)N[C@@H](CO)C(=O)N[C@@H](Cc3ccc(O)cc3)C(=O)N[C@@H](CCN)C(=O)N(C)CC(=O)N2)CCNC(=O)[C@H]([C@@H](C)O)NC(=O)[C@H](CCN)NC(=O)[C@H](CCN)NC1=O [Ex. 206] (H-CW[Dab][Tle]AS[dP]PLSY[Dab][Sar]C[dDab][Dab][Dab][dL]L[Dab][Dab]T; disulfide 1-14; lactam 16-C) | 4 | 0.5 | 1 | 4 | 1 | – |
